Data on four compounds can be found in patent publication US10941157B2, “Pesticidal compositions and uses thereof” (Gilead Apollo, LLC, priority 2015, dated 2021).

≈ marks a conversion by molar mass, not a printed value.

Assay [1] relates to Botrtyis cinerea (Bc). The assay can be described thus: In vitro pathogen growth inhibition assay, Bc. The class given is cell-based. Conditions: 48 h, ≥90% inhibition; 48 hours vs 2% DMSO control; read-out: Compound Concentration (ppm) sufficient for ≥90% inhibition of growth, Bc. The essentials: (§1)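 Value reported is the compound concentration reaching ≥90% growth inhibition, from OD readings at 24 and 48 h after blank subtraction, confirmed visually. Inoculum was spores diluted in 17% V8 medium, except Rs, using 1.5 mm mycelial plugs in ¼ PDB; actual compound concentration corrected via OD600.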

The subject of assay [2] is Collectotrichum graminicola (Cg). The assay can be described thus: In vitro pathogen growth inhibition assay, Cg. The format is cell-based. The settings on record: 48 h, ≥90% inhibition; 48 hours vs 2% DMSO control; read-out: Compound Concentration (ppm) sufficient for ≥90% inhibition of growth, Cg. In outline: as §1
Assay [3] deals with Diplodia maydis (Dm). Kind of assay: In vitro pathogen growth inhibition assay, Dm. The format is cell-based. The settings on record: Stenocarpella maydis, 48 h, ≥90% inhibition; 48 hours vs 2% DMSO control; read-out: Compound Concentration (ppm) sufficient for ≥90% inhibition of growth, Dm. In outline:
(§2)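 Spores of Dm, Fv and Pc were diluted in 17% V8 liquid medium; Rs used 1.5 mm mycelial plugs in ¼ PDB. Compounds from 2.5 mg/ml DMSO stocks were combined with inoculum, growth was read by OD600 at 24 and 48 h with blank subtraction, and the reported value is the concentration giving ≥90% inhibition.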

Assay [4] relates to Fusarium moniliforme (Fm). The assay can be described thus: In vitro pathogen growth inhibition assay, Fm. The format is cell-based. Conditions: Fusarium verticillioides; ≥90% inhibition; 48 hours vs 2% DMSO control; read-out: Compound Concentration (ppm) sufficient for ≥90% inhibition of growth, Fm. The essentials: as §1
Assay [5] relates to Fusarium virguliforme (Fv). The assay can be described thus: In vitro pathogen growth inhibition assay, Fv. The format is cell-based. Conditions: ≥90% inhibition, 48 hours vs 2% DMSO control, read-out: Compound Concentration (ppm) sufficient for ≥90% inhibition of growth, Fv. In outline: as §2
Assay [6] concerns Phytophthora capsici (Pc). The assay can be described thus: In vitro pathogen growth inhibition assay, Pc. The class given is cell-based. The settings on record: 48 h, ≥90% inhibition, 48 hours vs 2% DMSO control, read-out: Compound Concentration (ppm) sufficient for ≥90% inhibition of growth, Pc. The essentials: as §2
In assay [7] the test system is Rhizoctonia solani (Rs). The assay can be described thus: In vitro pathogen growth inhibition assay, Rs (mycelial plugs). The class given is cell-based. The settings on record: Rhizoctonia solani, 48 h, ≥90% inhibition; mycelial plugs; 48 hours vs 2% DMSO control; read-out: Compound Concentration (ppm) sufficient for ≥90% inhibition of growth, Rs. The essentials:
as §2

Assay [8] deals with Septoria tritici (St). Kind of assay: In vitro pathogen growth inhibition assay, St. The format is cell-based. The settings on record: Zymoseptoria tritici, 48 h, ≥90% inhibition; 48 hours vs 2% DMSO control; read-out: Compound Concentration (ppm) sufficient for ≥90% inhibition of growth, St. The essentials: as §1
Assay [9] relates to Blumeria graminis f. sp. hordei. Kind of assay: Foliar protection test for barley powdery mildew control. The class given is in vivo. Conditions: foliar spray on Hordeum vulgare cv. Perry, inoculated 24 hours after treatment, evaluated 7 days later. As for the experimental part:
Plants (Hordeum vulgare cv. Perry) were grown for 6 days in 2-inch square pots containing Metromix 200 medium amended with fertilizer. […] After inoculation with the pathogen of Blumeria graminis f. sp. hordei, plants were kept at conditions of 20 to 22° C., 70% relative humidity, and 200 uM of light to facilitate infection and disease development. […] An atomizer was used for applying the solution onto both sides of the leaves until thoroughly wetted. […] At 24 hours after treatment, the plants were moved to a cooler chamber and inoculated by shaking well-colonized, untreated stock plants above the treated plants. This allowed producing a settling cloud of spores and resulting in uniform infection. Efficacy was evaluated in 7 days later by examining leaves for colonization and growth of mildew. Table 4 lists the results of barley powdery mildew control at a compound concentration of 10 ppm or lower.

Assay [10] has as its system Sphaerotheca fuliginea. Kind of assay: Foliar protection for cucumber powdery mildew control. The format is in vivo. The settings on record: foliar spray on Cucumis sativus cv. Straight Eight, inoculated 24 hours after treatment, evaluated 7 days later. As for the experimental part:
Plants (Cucumis sativus cv. Straight Eight) were grown for 10 days in 2.5-inch square pots containing Metromix 200 medium amended with fertilizer. For propagation, plants were maintained in a growth chamber at conditions of 23 to 27° C., 16 hour light cycle, ambient humidity, and with sub-irrigation as needed. After inoculation with the pathogen of Sphaerotheca fuliginea, plants were kept at conditions of 23 to 27° C., 16 hour light cycle, 60% relative humidity, and with sub-irrigation as needed to facilitate infection and disease development. […] An atomizer was used for applying the solution onto both sides of the leaves until thoroughly wetted. […] At 24 hours after treatment, the plants were moved to a cooler chamber and inoculated by shaking well-colonized, untreated stock plants above the treated plants. This allowed producing a settling cloud of spores and resulting in uniform infection. Inoculated plants were kept near other sporulating stock plants to allow for infection of newly emerging leaves. Efficacy was evaluated in 7 days later by examining leaves for colonization and growth of mildew. Table 5 lists the results of cucumber powdery mildew control at a compound concentration of 10 ppm or lower.

The test system of assay [11] is Mycosphaerella graminicola (synthetic Septoria tritici). Kind of assay: Foliar protection test for wheat septoria leaf blotch control. The format is in vivo. Conditions: foliar spray on Triticum aestivum cv. WinterHawk, inoculated 1 hour after treatment, evaluated 16 days later.
For assay [12], the system named is Fusarium graminearum. The format is in vivo. Conditions: spray on flowering Triticum aestivum cv. Samson, inoculated 24 hours after treatment, evaluated 14 days later.
Assay [13] concerns Puccinia triticina. The assay can be described thus: Foliar protection test for wheat leaf rust control. The class given is in vivo. The settings on record: foliar application to wheat (Triticum aestivum cv. Winterhawk), evaluated 10 days later.
Assay [14] concerns Phakopsora pachyrhizi. The assay can be described thus: Foliar protection test for Asian soybean rust control. The format is in vivo. The settings on record: foliar application to soybean (Glycine max AG4832), percent disease area evaluated 14 days later.

`COc1ccc(F)cc1[C@H](Cn1c(=O)n([C@@H](C)C(=O)N(C)C(C)C)c(=O)c2c(C)c(-n3nccn3)sc21)OCCO` [Compound I-089, (S)-2-(1-((R)-2-(5-fluoro-2-methoxyphenyl)-2-(2-hydroxyethoxy)ethyl)-5-methyl-2,4-dioxo-6-(2H-1,2,3-triazol-2-yl)-1,4-dihydrothieno[2,3-d]pyrimidin-3 (2H)-yl)-N-isopropyl-N-methylpropanamide]: the IC90 in assay [1] is greater than 0.4 µg/mL; in assay [2] it was greater than 0.4 µg/mL; in assay [3], 2 µg/mL (≈ 3.4 µM); in assay [4] it was 0.08 µg/mL (≈ 0.136 µM); in assay [5] it was greater than 0.4 µg/mL; in assay [6] it was no less than 50 µg/mL. Moreover, the IC90 in assay [7] was 0.08 µg/mL (≈ 0.136 µM); in assay [8] it was no less than 10 µg/mL. Moreover, the “Barley Powdery Mildew Control at a compound concentration of 10 ppm or lower” value in assay [9] is on record as “B (from 50 to 69% control of barley powdery mildew)”. In addition, in [10], the “Cucumber Powdery Mildew Control at a compound concentration of 10 ppm or lower” value is “AA (≥85% control of cucumber powdery mildew)”. In assay [11], the “Septoria Leaf Blotch Control at a compound concentration of 25 ppm or lower” value is “C (from 25 to 49% control of wheat septoria leaf blotch)”. Also, the “Wheat Fusarium Head Blight Control at a compound concentration of 25 ppm or lower” value in [12] was “D (<25% control of wheat fusarium head blight)”. For the same compound, the “Wheat Leaf Rust Control at a compound concentration of 10 ppm or lower” value (from here on “Wheat Leaf Rust Control … of 10 ppm or lower”) in [13] is “AA (≥85% control of wheat leaf rust)”. Further, the “Asian Soybean Rust Control at a compound concentration of 25 ppm or lower” value (from here on “Asian Soybean Rust Control … of 25 ppm or lower”) in assay [14] is given as “A (from 70% to 84% control of Asian soybean rust)”.

On to `COc1ccc(F)cc1[C@H](Cn1c(=O)n([C@H](C)C(=O)N(C)C(C)C)c(=O)c2c(C)c(-n3nccn3)sc21)OCCO` [Compound I-090, (R)-2-(1-((R)-2-(5-fluoro-2-methoxyphenyl)-2-(2-hydroxyethoxy)ethyl)-5-methyl-2,4-dioxo-6-(2H-1,2,3-triazol-2-yl)-1,4-dihydrothieno[2,3-d]pyrimidin-3 (2H)-yl)-N-isopropyl-N-methylpropanamide], for which the IC90 in assay [1] was 2 µg/mL (≈ 3.4 µM); in [2] it was 0.08 µg/mL (≈ 0.136 µM); in assay [3] it was greater than 0.08 µg/mL; in assay [4] it was 0.08 µg/mL (≈ 0.136 µM); in [5] it was greater than 0.4 µg/mL; in assay [6], 2 µg/mL (≈ 3.4 µM). In addition, the values for the IC90 in assay [7] and in assay [8] were 0.08 µg/mL (≈ 0.136 µM) and no less than 2 µg/mL, respectively. Further, the “Barley Powdery Mildew Control at a compound concentration of 10 ppm or lower” value in assay [9] is reported as “A (from 70% to 84% control of barley powdery mildew)”. Moreover, in [10], the “Cucumber Powdery Mildew Control at a compound concentration of 10 ppm or lower” value is “A (from 70% to 84% control of cucumber powdery mildew)”. Moreover, the “Septoria Leaf Blotch Control at a compound concentration of 25 ppm or lower” value in assay [11] is “A (from 70% to 84% control of wheat septoria leaf blotch)”. The “Wheat Fusarium Head Blight Control at a compound concentration of 25 ppm or lower” value in assay [12] is “D (<25% control of wheat fusarium head blight)”. Also, the “Wheat Leaf Rust Control … of 10 ppm or lower” value in assay [13] was “AA (≥85% control of wheat leaf rust)”. The “Asian Soybean Rust Control … of 25 ppm or lower” value in assay [14] is “B (from 50 to 69% control of Asian soybean rust)”.

Regarding `COc1ccc(F)cc1[C@H](Cn1c(=O)n([C@H](C)C(=O)NC2CCC2)c(=O)c2c(C)c(-n3nccn3)sc21)OCCO` [Compound I-092, (R)—N-cyclobutyl-2-(1-((R)-2-(5-fluoro-2-methoxyphenyl)-2-(2-hydroxyethoxy)ethyl)-5-methyl-2,4-dioxo-6-(2H-1,2,3-triazol-2-yl)-1,4-dihydrothieno[2,3-d]pyrimidin-3(2H)-yl)propanamide], the IC90 in [1] is 0.4 µg/mL (≈ 0.682 µM); in assay [2], 0.08 µg/mL (≈ 0.136 µM); in assay [3], 0.4 µg/mL (≈ 0.682 µM); in [4], 0.08 µg/mL (≈ 0.136 µM); in assay [5], greater than 0.4 µg/mL; in assay [6] it was 2 µg/mL (≈ 3.41 µM). Also, the IC90 in [7] was 0.08 µg/mL (≈ 0.136 µM); in [8] it was no less than 2 µg/mL. Moreover, the “Barley Powdery Mildew Control at a compound concentration of 10 ppm or lower” value in assay [9] is given as “C (from 25 to 49% control of barley powdery mildew)”. For the same compound, in [10], the “Cucumber Powdery Mildew Control at a compound concentration of 10 ppm or lower” value is given as “AA (≥85% control of cucumber powdery mildew)”. The “Septoria Leaf Blotch Control at a compound concentration of 25 ppm or lower” value in [11] is listed as “B (from 50 to 69% control of wheat septoria leaf blotch)”. Further, in assay [12], the “Wheat Fusarium Head Blight Control at a compound concentration of 25 ppm or lower” value is “C (from 25 to 49% control of wheat fusarium head blight)”. Moreover, in [13], the “Wheat Leaf Rust Control … of 10 ppm or lower” value is “AA (≥85% control of wheat leaf rust)”. Further, the “Asian Soybean Rust Control … of 25 ppm or lower” value in [14] is “B (from 50 to 69% control of Asian soybean rust)”.

With `COCCCO[C@@H](Cn1c(=O)n([C@H](C)C(=O)NC(C)C)c(=O)c2c(C)c(-n3nccn3)sc21)c1cc(F)ccc1OC` [Compound I-094, (R)-2-(1-((R)-2-(5-fluoro-2-methoxyphenyl)-2-(3-methoxypropoxy)ethyl)-5-methyl-2,4-dioxo-6-(2H-1,2,3-triazol-2-yl)-1,4-dihydrothieno[2,3-d]pyrimidin-3 (2H)-yl)-N-isopropylpropanamide], the IC90 in assay [1] is 0.08 µg/mL (≈ 0.133 µM); in [2] it was 0.08 µg/mL (≈ 0.133 µM); in [3], greater than 0.4 µg/mL; in assay [4] it was 0.08 µg/mL (≈ 0.133 µM); in assay [5], 0.08 µg/mL (≈ 0.133 µM); in assay [6], greater than 50 µg/mL. For the same compound, the values for the IC90 in assay [7] and in assay [8] were 0.08 µg/mL (≈ 0.133 µM) and no less than 10 µg/mL, respectively. Also, the “Barley Powdery Mildew Control at a compound concentration of 10 ppm or lower” value in assay [9] was “AA (≥85% control of barley powdery mildew)”. In addition, the “Cucumber Powdery Mildew Control at a compound concentration of 10 ppm or lower” value in assay [10] is listed as “AA (≥85% control of cucumber powdery mildew)”. Also, the “Septoria Leaf Blotch Control at a compound concentration of 25 ppm or lower” value in assay [11] is reported as “A (from 70% to 84% control of wheat septoria leaf blotch)”. In addition, the “Wheat Fusarium Head Blight Control at a compound concentration of 25 ppm or lower” value in assay [12] was “A (from 70% to 84% control of wheat fusarium head blight)”. For the same compound, the “Wheat Leaf Rust Control … of 10 ppm or lower” value in assay [13] is on record as “C (from 25 to 49% control of wheat leaf rust)”. In addition, the “Asian Soybean Rust Control … of 25 ppm or lower” value in assay [14] was “C (from 25 to 49% control of Asian soybean rust)”.
